Test results taken from article PMC3824017 (The Journal of Cell Biology, 2013).

Tests used:
erlin-1 = target: T1, erlin-1 (Homo sapiens, UniProt O75477); assay type: binding
T1 sequence (O75477 1-348): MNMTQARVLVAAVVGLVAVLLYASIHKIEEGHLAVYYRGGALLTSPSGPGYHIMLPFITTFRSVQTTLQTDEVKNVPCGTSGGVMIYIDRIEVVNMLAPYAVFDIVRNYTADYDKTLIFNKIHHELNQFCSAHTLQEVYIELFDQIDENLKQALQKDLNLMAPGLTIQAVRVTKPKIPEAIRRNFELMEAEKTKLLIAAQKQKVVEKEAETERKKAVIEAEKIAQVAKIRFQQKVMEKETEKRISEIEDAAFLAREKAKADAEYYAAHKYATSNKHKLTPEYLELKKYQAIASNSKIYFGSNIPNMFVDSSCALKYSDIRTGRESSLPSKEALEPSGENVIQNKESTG

[1] = target: T2, erlin-2 (native erlin-1/2 complex) (Mus musculus, UniProt Q8BFZ9+Q91X78); assay type: binding
T2 sequence (Q8BFZ9 1-340): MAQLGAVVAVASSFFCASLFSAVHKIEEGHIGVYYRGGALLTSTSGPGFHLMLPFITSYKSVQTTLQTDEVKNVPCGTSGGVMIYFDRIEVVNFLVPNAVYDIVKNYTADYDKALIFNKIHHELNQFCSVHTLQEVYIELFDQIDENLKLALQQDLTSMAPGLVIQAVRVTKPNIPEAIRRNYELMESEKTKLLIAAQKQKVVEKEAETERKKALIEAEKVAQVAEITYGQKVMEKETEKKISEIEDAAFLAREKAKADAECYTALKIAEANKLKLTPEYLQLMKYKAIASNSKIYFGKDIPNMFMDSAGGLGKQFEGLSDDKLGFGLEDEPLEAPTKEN
T2 sequence (Q91X78 1-348): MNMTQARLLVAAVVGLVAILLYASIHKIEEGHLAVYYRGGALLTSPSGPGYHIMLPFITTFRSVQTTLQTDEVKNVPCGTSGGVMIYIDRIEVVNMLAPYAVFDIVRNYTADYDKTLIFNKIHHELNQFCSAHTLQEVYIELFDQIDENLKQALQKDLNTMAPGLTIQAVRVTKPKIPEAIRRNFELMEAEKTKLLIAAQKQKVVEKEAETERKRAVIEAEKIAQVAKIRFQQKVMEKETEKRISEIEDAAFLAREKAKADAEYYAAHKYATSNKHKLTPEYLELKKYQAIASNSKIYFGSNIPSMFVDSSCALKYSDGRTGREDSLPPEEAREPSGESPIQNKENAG

SMILES: CC(C)CCC[C@@H](C)[C@H]1CC[C@H]2[C@@H]3CC=C4C[C@@H](O)CC[C@]4(C)[C@H]3CC[C@]12C [cholesterol]
- Kd (erlin-1): 13.2 µM
- Kd [1]: 13.4 µM
